Results from US6770649B2, “1-[1-(hetero)aryl-1-perhydroxyalkylmethyl]-piperazine compounds, process for their preparation and pharmaceutical compositions containing them” (Solvay Pharmaceuticals GmbH, priority 2001, dated 2004).

target: T1, human NK-2 receptor (Homo sapiens, UniProt P21452); experiment: Binding power of the test substances to NK-2 receptors in vitro ([3H]-SR 48968 displacement, CHO cell membranes); conditions: displacement of [3H]-SR 48968, 90 min incubation, average of at least three measurements, 10^-6 to 10^-10 mol/l, read-out: pKi, affinity to human NK-2 receptors (converted)
T1 construct: expressed in transfected cells; host or cells: CHO cells (membrane preparation)
T1 sequence (P21452 1-398): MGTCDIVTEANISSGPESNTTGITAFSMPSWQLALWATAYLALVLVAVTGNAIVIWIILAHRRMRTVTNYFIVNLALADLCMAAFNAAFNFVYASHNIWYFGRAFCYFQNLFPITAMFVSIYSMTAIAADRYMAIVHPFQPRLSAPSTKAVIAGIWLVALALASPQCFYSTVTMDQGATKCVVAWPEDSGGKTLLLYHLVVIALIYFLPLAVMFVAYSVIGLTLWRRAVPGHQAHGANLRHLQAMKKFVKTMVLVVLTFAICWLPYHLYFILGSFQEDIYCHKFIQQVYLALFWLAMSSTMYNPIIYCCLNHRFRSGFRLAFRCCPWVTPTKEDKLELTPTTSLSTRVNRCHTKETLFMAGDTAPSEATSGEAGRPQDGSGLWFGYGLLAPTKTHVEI
Method: 1. Determination of the Binding Power of the Test Substances to NK-2 Receptors in vitro
The affinity of the test substances to human NK-2 receptors was measured in vitro. The ability of the test substances to displace the selective NK-2 receptor antagonist SR 48968 (=saredutant) used as reference ligand from its corresponding bond was determined.
The receptor binding studies were carried out with radioactively marked [^3H]-SR 48968 (from Amersham) as ligand. For the binding test, different samples of a membrane preparation of CHO cells (=[…]), which express the human NK-2 receptor (for preparation, see N. P. Gerard et al., Journal of Biological Chemistry 265/33 (1990) 20455-20462), were incubated for 90 minutes (=min.) with a solution of the marked ligand, with the incubation mixtures containing no test substance or additions of different concentrations of test substance. Then in each case the membrane-bound ligands in the samples were separated from free ligands by filtration. The fraction remaining in the filter was washed several times with buffer solution, before its radioactivity was measured using a liquid scintillation counter. That concentration which effects half-maximum displacement of the bound reference ligand was determined as IC50 of the respective test substance. The inhibition constant (Ki value) of the test substance was calculated from the respective IC50 value, and was stated as the negative logarithmised value thereof (pKi).
For the compounds of Examples 1 to 39, the affinity to human NK-2 receptors was determined in each case by at least three measurements of the test substances in concentration series of 10^−6 to 10^−10 mol/l. If several measurements were performed, the average thereof was listed each time.

| SMILES | Ki |
| --- | --- |
| CN(CC(CCN1CCN(C(c2ccco2)[C@H](O)[C@@H](O)[C@H](O)CO)CC1)c1ccc(Cl)c(Cl)c1)C(=O)c1ccccc1 (mixture of isomers) [Example 13] | ≤ 10 nM |
| CN(C[C@@H](CCN1CCN(C(c2ccsc2)[C@H](O)[C@@H](O)[C@H](O)CO)CC1)c1ccc(Cl)c(Cl)c1)C(=O)c1ccccc1 (stereo partly drawn) [Example 1, N-((2S)-2-(3,4-dichlorophenyl)-4-{4-[(2S,3R,4R)-2,3,4,5-tetrahydroxy-1-(3-thienyl)pentyl]-1-piperazinyl}butyl)-N-methylbenzamide] | ≤ 1 nM |
| CC(=O)OC[C@@H](OC(C)=O)[C@H](OC(C)=O)[C@@H](OC(C)=O)C(c1ccsc1)N1CCN(CC[C@H](CN(C)C(=O)c2ccccc2)c2ccc(Cl)c(Cl)c2)CC1 (stereo partly drawn) [Example 14] | ≤ 10 nM |
